PubChem BioAssay AID1919013 (Molecular Pharmacology Branch, DTP, NCI, 2023)

System: LG0703-F498-PDC complex spheroid growth
Experiment: Anticancer human tumor LG0703-F498-PDC patient-derived lung adenocarcinoma cell line growth inhibition [AhR]
Settings: for IC50: curve of first compound; for viability, T/C: stronger effect = lower value
Text: Multicellular complex tumor spheroid response to aryl hydrocarbon receptor antagonists in combination with a variety of drugs and investigational agents in selected tumor cell lines
The current study was undertaken to assess response to aryl hydrocarbon receptor antagonists in combination with standard-of-care drugs and investigational agents in solid tumor complex spheroid models. Complex spheroids include a stromal component modeled by human endothelial cells (HUVEC) and fibroblasts modeled by human mesenchymal stem cells (MSCs). The concentration ranges selected for each drug and investigational agent were based upon clinically achievable concentrations if the clinical Cmax of the agent was known.
Compounds. The drugs and investigational agents: BAY 2416964 (NSC825713), GNF351 (NSC835774), CH-223191 (NSC835775), CPI-455 (NSC825282), aza-TdCyd (NSC777586), decitabine (NSC127716), belinostat (NSC758774), entinostat (NSC756642), pevonedistat (NSC761192), tazemetostat (NSC777109), talazoparib (NSC765396), olaparib (NSC753686), selinexor (NSC780203), nedisertib (M3814, NSC802822), bortezomib (NSC756655), venetoclax (NSC766270), doxorubicin (NSC123127), elimusertib (BAY189344, NSC800525), ceralasertib (AZD6738, NSC777638), TAK-243 (NSC785004), alisertib (NSC759677), etoposide (NSC141540), topotecan (NSC609699), eribulin (NSC707389), gemcitabine (NSC613327), carboplatin (NSC241240), cisplatin (NSC119875), and SN-38 (NSC673596) were obtained from the National Cancer Institute (NCI) Developmental Therapeutics Program Chemical Repository (32). The FDA-approved anticancer drug set is available from the Developmental Therapeutics Program at https://dtp.cancer.gov/organization/dscb/obtaining/available plates.htm. […] The stock solutions were prepared in dimethyl sulfoxide (DMSO, Sigma-Aldrich, St. Louis, MO, cat. D2650), except for the platinum compounds which were prepared in saline (Quality Biological, Gaithersburg, MD, cat. 114-055-101), at 800-fold the tested concentration and stored at -70 degrees C prior to their use. All drugs and investigational agents were tested over a range starting from a high concentration at or near the clinical Cmax and decreasing in half-log increments. If the clinical Cmax for an agent had not been determined, the highest concentration tested was 10 microM (Table 1).
Cell Culture. All cells were maintained in an incubator at 37 degrees C and 5% CO2 with 95% humidity. The PDC lines were cultured according to standard operating procedures established by the NCI PDMR (https://pdmr.cancer.gov). Briefly, all PDCs were thawed and cultured in Matrigel-coated flasks prepared with a working solution of 1X Ham's F-12 nutrient mix, without supplementation (Invitrogen, Waltham, MA, cat. 11765054), 100 U/mL penicillin-streptomycin (Invitrogen, cat. 15140122), and 2.5% Matrigel (Corning Inc., Corning, NY, cat. 354248) for the first three passages. All PDCs were cultured in complete DMEM/F-12 media containing advanced DMEM/F-12 (Invitrogen, cat. 12634028), 4.9% defined fetal bovine serum, heat inactivated (HyClone Laboratories Inc., Logan, UT, cat. SH30070.03HI), 389 ng/mL hydrocortisone (Sigma-Aldrich, cat. H4001), 9.7 ng/mL human EGF recombinant protein (Invitrogen, cat. PHG0313), 23.4 microg/mL adenine (Sigma-Aldrich, cat. A2786), 97.3 U/mL penicillin-streptomycin (Invitrogen, cat. 15140122), 1.9 mM L-glutamine (Invitrogen, cat. 25030081), and 9.7 microM Y-27632 dihydrochloride (Tocris Bioscience, Bristol, United Kingdom, cat. 1254). The PDCs were cultured in complete DMEM/F12 media without 10 microM Y-27632 dihydrochloride for at least two passages prior to the screen. The established cell lines NCI-H1341 and […] were cultured in DMEM/F-12, HEPES (Invitrogen, cat. 11330032), 5% defined fetal bovine serum (HyClone Laboratories Inc., cat. SH30070.03), ITS premix universal culture supplement [insulin (5 microg/mL), transferrin (5 microg/mL), and selenious acid (5 ng/mL)] […]

[1] = second compound 0.1 µM, first compound 0.0316 µM
[2] = second compound 0.1 µM, first compound 0.1 µM
[3] = second compound 0.316 µM, first compound 0.0316 µM
[4] = second compound 0.316 µM, first compound 0.1 µM
[5] = second compound 1 µM, first compound 0.0316 µM
[6] = second compound 1 µM, first compound 0.1 µM
[7] = second compound 3.16 µM, first compound 0.0316 µM
[8] = second compound 3.16 µM, first compound 0.1 µM
[9] = second compound 10 µM, first compound 0.0316 µM
[10] = second compound 10 µM, first compound 0.1 µM
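Also: luminescence taken as a proxy for viable cell amount.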
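For viability, T/C in this document: percent of DMSO vehicle control where 100% means growth equal to vehicle.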

CC[C@@]1(O)C(=O)OCc2c1cc1n(c2=O)Cc2cc3c(CN(C)C)c(O)ccc3nc2-1 + CC(CO)NC(=O)c1cc(-c2ccc(Cl)cc2)nn(-c2cnn(C)c2)c1=O
IC50 (second compound 0.1 µM): > 0.1 µM
IC50 (second compound 0.316 µM): > 0.1 µM
IC50 (second compound 1 µM): > 0.1 µM
IC50 (second compound 3.16 µM): > 0.1 µM
IC50 (second compound 10 µM): > 0.1 µM
viability, T/C (second compound 0.1 µM, first compound 0.000316 µM): 89%
viability, T/C (second compound 0.1 µM, first compound 0.001 µM): 101%
viability, T/C (second compound 0.1 µM, first compound 0.00316 µM): 86.7%
viability, T/C (second compound 0.1 µM, first compound 0.01 µM): 90.6%
viability, T/C [1]: 83.2%
viability, T/C [2]: 66.1%
viability, T/C (second compound 0.316 µM, first compound 0.000316 µM): 96%
viability, T/C (second compound 0.316 µM, first compound 0.001 µM): 99.5%
viability, T/C (second compound 0.316 µM, first compound 0.00316 µM): 92.3%
viability, T/C (second compound 0.316 µM, first compound 0.01 µM): 80.9%
viability, T/C [3]: 73.2%
viability, T/C [4]: 57.2%
viability, T/C (second compound 1 µM, first compound 0.000316 µM): 80.8%
viability, T/C (second compound 1 µM, first compound 0.001 µM): 93.2%
viability, T/C (second compound 1 µM, first compound 0.00316 µM): 84.5%
viability, T/C (second compound 1 µM, first compound 0.01 µM): 77.4%
viability, T/C [5]: 78.6%
viability, T/C [6]: 61.2%
viability, T/C (second compound 3.16 µM, first compound 0.000316 µM): 76%
viability, T/C (second compound 3.16 µM, first compound 0.001 µM): 86.3%
viability, T/C (second compound 3.16 µM, first compound 0.00316 µM): 90.8%
viability, T/C (second compound 3.16 µM, first compound 0.01 µM): 79.2%
viability, T/C [7]: 58.6%
viability, T/C [8]: 52.9%
viability, T/C (second compound 10 µM, first compound 0.000316 µM): 79.2%
viability, T/C (second compound 10 µM, first compound 0.001 µM): 79.7%
viability, T/C (second compound 10 µM, first compound 0.00316 µM): 86.6%
viability, T/C (second compound 10 µM, first compound 0.01 µM): 66.5%
viability, T/C [9]: 63.4%
viability, T/C [10]: 51.9%

COc1cc(C2c3cc4c(cc3C(OC3OC5COC(C)OC5C(O)C3O)C3COC(=O)C23)OCO4)cc(OC)c1O (stereo not given) + CC(CO)NC(=O)c1cc(-c2ccc(Cl)cc2)nn(-c2cnn(C)c2)c1=O
IC50 (second compound 0.1 µM): > 10 µM
IC50 (second compound 0.316 µM): > 10 µM
IC50 (second compound 1 µM): > 10 µM
IC50 (second compound 3.16 µM): > 10 µM
IC50 (second compound 10 µM): > 10 µM
viability, T/C [1]: 111%
viability, T/C [2]: 108%
viability, T/C (second compound 0.1 µM, first compound 0.316 µM): 93.9%
viability, T/C (second compound 0.1 µM, first compound 1 µM): 87.9%
viability, T/C (second compound 0.1 µM, first compound 3.16 µM): 81.8%
viability, T/C (second compound 0.1 µM, first compound 10 µM): 76.3%
viability, T/C [3]: 98.6%
viability, T/C [4]: 107%
viability, T/C (second compound 0.316 µM, first compound 0.316 µM): 99.8%
viability, T/C (second compound 0.316 µM, first compound 1 µM): 81.5%
viability, T/C (second compound 0.316 µM, first compound 3.16 µM): 93.3%
viability, T/C (second compound 0.316 µM, first compound 10 µM): 69.9%
viability, T/C [5]: 100%
viability, T/C [6]: 103%
viability, T/C (second compound 1 µM, first compound 0.316 µM): 101%
viability, T/C (second compound 1 µM, first compound 1 µM): 94.3%
viability, T/C (second compound 1 µM, first compound 3.16 µM): 75.7%
viability, T/C (second compound 1 µM, first compound 10 µM): 75.2%
viability, T/C [7]: 91.1%
viability, T/C [8]: 95.8%
viability, T/C (second compound 3.16 µM, first compound 0.316 µM): 96.5%
viability, T/C (second compound 3.16 µM, first compound 1 µM): 81.7%
viability, T/C (second compound 3.16 µM, first compound 3.16 µM): 72.8%
viability, T/C (second compound 3.16 µM, first compound 10 µM): 75.5%
viability, T/C [9]: 84.3%
viability, T/C [10]: 85.7%
viability, T/C (second compound 10 µM, first compound 0.316 µM): 90.7%
viability, T/C (second compound 10 µM, first compound 1 µM): 78%
viability, T/C (second compound 10 µM, first compound 3.16 µM): 73%
viability, T/C (second compound 10 µM, first compound 10 µM): 60.8%
